Laboratory results taken from PubChem BioAssay AID330 (DTP/NCI, 2004).
Values joined by “and” are separate entries in the source; they are usually repeats but may differ in a detail not shown here. Equal entries are not always repeated. Inconclusive results and toxic doses are left out. How the source made its calls: active means survival T/C of 150% or more; inactive means T/C below 125% in these data.

System: P388 leukemia ip, CD2F1 mice, survival T/C
Assay: NCI In Vivo Anticancer Drug Screen. Data for tumor model P388 Leukemia (intraperitoneal) in CD2F1 (CDF1) mice
Conditions: endpoint: median survival time, higher = longer survival
Procedure, shortened: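 Mice carrying the transplanted tumor received test compound or vehicle. Survival was recorded in each group, and the value is the treated-group measurement divided by that of the vehicle-treated control group.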

[1] = dose: 50.0 mg/kg/injection, schedule: Q01DX005 (ip), vehicle: Klucel (hydroxypropylcellulose) (HPC)
[2] = dose: 100.0 mg/kg/injection, schedule: Q01DX005 (ip), vehicle: Klucel (hydroxypropylcellulose) (HPC)
[3] = dose: 50.0 mg/kg/injection, schedule: Q01DX005 (ip), vehicle: saline with Tween-80
[4] = dose: 100.0 mg/kg/injection, schedule: Q01DX005 (ip), vehicle: saline with Tween-80
[5] = dose: 200.0 mg/kg/injection, schedule: Q01DX005 (ip), vehicle: saline with Tween-80
[6] = dose: 12.5 mg/kg/injection, schedule: Q01DX009 (ip), vehicle: Klucel (hydroxypropylcellulose) (HPC)
[7] = dose: 25.0 mg/kg/injection, schedule: Q01DX009 (ip), vehicle: Klucel (hydroxypropylcellulose) (HPC)
[8] = dose: 50.0 mg/kg/injection, schedule: Q01DX009 (ip), vehicle: Klucel (hydroxypropylcellulose) (HPC)
[9] = dose: 100.0 mg/kg/injection, schedule: Q01DX009 (ip), vehicle: Klucel (hydroxypropylcellulose) (HPC)
[10] = dose: 100.0 mg/kg/injection, schedule: Q04DX002 (ip), vehicle: saline with Tween-80
[11] = dose: 200.0 mg/kg/injection, schedule: Q04DX002 (ip), vehicle: saline with Tween-80
[12] = dose: 400.0 mg/kg/injection, schedule: Q04DX002 (ip), vehicle: saline with Tween-80
[13] = dose: 50.0 mg/kg/injection, schedule: Q01DX009 (ip), vehicle: saline + Tween-80 + alcohol
[14] = dose: 100.0 mg/kg/injection, schedule: Q01DX009 (ip), vehicle: saline + Tween-80 + alcohol

Measured: T/C

CCCc1cccc2c3c([nH]c12)C(CC)(CC(=O)O)OCC3 (stereo not drawn)
inactive: dose: 100.0 mg/kg/injection, schedule: Q01DX001 (ip), vehicle: Klucel (hydroxypropylcellulose) (HPC) 96 % of control | dose: 200.0 mg/kg/injection, schedule: Q01DX001 (ip), vehicle: Klucel (hydroxypropylcellulose) (HPC) 96 % of control | dose: 400.0 mg/kg/injection, schedule: Q01DX001 (ip), vehicle: Klucel (hydroxypropylcellulose) (HPC) 91 % of control

NC(=S)SCCC(=O)N1CCCCC1
inactive: dose: 25.0 mg/kg/injection, schedule: Q04DX002 (ip), vehicle: Klucel (hydroxypropylcellulose) (HPC) 101 % of control | dose: 50.0 mg/kg/injection, schedule: Q04DX002 (ip), vehicle: Klucel (hydroxypropylcellulose) (HPC) 95 % of control | dose: 100.0 mg/kg/injection, schedule: Q04DX002 (ip), vehicle: Klucel (hydroxypropylcellulose) (HPC) 104 % of control and 95 % of control

O=[N+]([O-])c1cc2cc(Cl)c3ccccc3c2o1
inactive: [1] 100 % of control | [2] 102 % of control | dose: 200.0 mg/kg/injection, schedule: Q01DX005 (ip), vehicle: Klucel (hydroxypropylcellulose) (HPC) 102 % of control

COc1c2occc2c(N=Cc2ccccn2)c2ccc(=O)oc12
inactive: dose: 6.25 mg/kg/injection, schedule: Q01DX005 (ip), vehicle: Klucel (hydroxypropylcellulose) (HPC) 97 % of control | dose: 12.5 mg/kg/injection, schedule: Q01DX005 (ip), vehicle: Klucel (hydroxypropylcellulose) (HPC) 97 % of control | dose: 25.0 mg/kg/injection, schedule: Q01DX005 (ip), vehicle: Klucel (hydroxypropylcellulose) (HPC) 95 % of control | [1] 90 % of control

OCCN1CCN(CC/C=C2\c3ccccc3COc3ccc(Cl)cc32)CC1
inactive: dose: 6.25 mg/kg/injection, schedule: Q04DX003 (ip), vehicle: saline 100 % of control | dose: 12.5 mg/kg/injection, schedule: Q04DX003 (ip), vehicle: saline 114 % of control and 117 % of control | dose: 25.0 mg/kg/injection, schedule: Q04DX003 (ip), vehicle: saline 110 % of control | dose: 50.0 mg/kg/injection, schedule: Q04DX003 (ip), vehicle: saline 110 % of control | dose: 100.0 mg/kg/injection, schedule: Q04DX003 (ip), vehicle: saline 97 % of control

CCC[N+](CCC)=c1ccc2nc3c(C)cc(N(CC)CC)cc3sc-2c1
inactive: dose: 0.78 mg/kg/injection, schedule: Q01DX009 (ip), vehicle: saline 108 % of control | dose: 1.56 mg/kg/injection, schedule: Q01DX009 (ip), vehicle: saline 112 % of control | dose: 3.13 mg/kg/injection, schedule: Q01DX009 (ip), vehicle: saline 113 % of control and 118 % of control | dose: 6.25 mg/kg/injection, schedule: Q01DX009 (ip), vehicle: saline 123 % of control | dose: 12.5 mg/kg/injection, schedule: Q01DX009 (ip), vehicle: saline 115 % of control

S=c1n(-c2ccc(Cl)cc2)c2nc3ccccc3nc(/c2=N\Nc2ccccc2)n1-c1ccc(Br)cc1
inactive: [3] 92 % of control | [4] 105 % of control | [5] 105 % of control

Sc1ccccc1.[Ag]
inactive: dose: 25.0 mg/kg/injection, schedule: Q01DX009 (ip), vehicle: saline with Tween-80 97 % of control | dose: 50.0 mg/kg/injection, schedule: Q01DX009 (ip), vehicle: saline with Tween-80 105 % of control | dose: 100.0 mg/kg/injection, schedule: Q01DX009 (ip), vehicle: saline with Tween-80 96 % of control

Cc1c(N)nc([C@H](CC(N)=O)NC[C@H](N)C(N)=O)nc1C(=O)N[C@H](C(=O)N[C@H](C)[C@@H](O)[C@H](C)C(=O)N[C@H](C(=O)NCCc1nc(-c2nc(C(=O)NCCC[S+](C)C)cs2)cs1)[C@@H](C)O)C(OC1OC(CO)C(O)C(O)C1OC1OC(CO)C(O)C(OC(N)=O)C1O)c1cnc[nH]1 (stereo partly drawn)
inactive: dose: 3.13 mg/kg/injection, schedule: Q01DX009 (ip), vehicle: Klucel (hydroxypropylcellulose) (HPC) 121 % of control | dose: 3.5 mg/kg/injection, schedule: Q01DX009 (ip), vehicle: saline 100 % of control | dose: 3.6 mg/kg/injection, schedule: Q01DX009 (ip), vehicle: saline 117 % of control | dose: 4.0 mg/kg/injection, schedule: Q04DX003 (ip), vehicle: saline 115 % of control | dose: 5.3 mg/kg/injection, schedule: Q01DX009 (ip), vehicle: saline 107 % of control and 114 % of control | dose: 6.25 mg/kg/injection, schedule: Q01DX009 (ip), vehicle: Klucel (hydroxypropylcellulose) (HPC) 123 % of control | dose: 8.0 mg/kg/injection, schedule: Q04DX003 (ip), vehicle: saline 122 % of control | dose: 12.0 mg/kg/injection, schedule: Q01DX009 (ip), vehicle: saline 106 % of control and 121 % of control | [6] 121 % of control | dose: 16.0 mg/kg/injection, schedule: Q04DX003 (ip), vehicle: saline 121 % of control | [7] 94 % of control

COCCC1OCC(CCl)O1 (stereo not drawn)
inactive: [3] 104 % of control | [4] 99 % of control | [5] 108 % of control

O=C(Nc1ccc2c(O)c(N=Nc3ccc(N=Nc4ccc(S(=O)(=O)O)cc4)cc3)c(S(=O)(=O)O)cc2c1)c1ccccc1
inactive: dose: 50.0 mg/kg/injection, schedule: Q01DX009 (ip), vehicle: saline 100 % of control | dose: 100.0 mg/kg/injection, schedule: Q01DX009 (ip), vehicle: saline 95 % of control | dose: 200.0 mg/kg/injection, schedule: Q01DX009 (ip), vehicle: saline 103 % of control

O=c1[nH]cnc2ncccc12
inactive: [6] 104 % of control | [7] 110 % of control | [8] 112 % of control | [9] 87 % of control

O=C(Cn1nnc2ccccc21)N1CCN(c2ccccc2)CC1
inactive: dose: 60.0 mg/kg/injection, schedule: Q01DX005 (ip), vehicle: saline with Tween-80 90 % of control | dose: 120.0 mg/kg/injection, schedule: Q01DX005 (ip), vehicle: saline with Tween-80 87 % of control

Clc1cc(Cl)c(Cl)nn1
inactive: [7] 98 % of control | [8] 94 % of control | [9] 92 % of control

CCC(c1ccc(O)cc1)c1cc2c(cc1OC)OCO2 (stereo not drawn)
inactive: dose: 50.0 mg/kg/injection, schedule: Q01DX005 (ip), vehicle: distilled water + Tween-80 101 % of control | dose: 100.0 mg/kg/injection, schedule: Q01DX005 (ip), vehicle: distilled water + Tween-80 96 % of control | dose: 200.0 mg/kg/injection, schedule: Q01DX005 (ip), vehicle: distilled water + Tween-80 96 % of control

C=Cn1c([N+](=O)[O-])cnc1/C=C/c1ccc(C(=O)NC)cc1
inactive: [10] 100 % of control | [11] 102 % of control | [12] 95 % of control

C[n+]1c2ccccc2cc2[nH]c3ccccc3c21
inactive: dose: 6.25 mg/kg/injection, schedule: Q01DX005 (ip), vehicle: Klucel + Tween-80 105 % of control

CC1C(c2ccccc2)N(C)C(c2ccccc2)C(C)C1(O)c1ccccc1 (stereo not drawn)
inactive: [3] 97 % of control | [4] 94 % of control | [5] 94 % of control

CCn1c2ccc(NC(=O)OC(C)C)cc2c2c3[nH]c(=O)c4cccn4c3ccc21
inactive: dose: 100.0 mg/kg/injection, schedule: Q01DX001 (ip), vehicle: saline with Tween-80 87 % of control | dose: 200.0 mg/kg/injection, schedule: Q01DX001 (ip), vehicle: saline with Tween-80 87 % of control | dose: 400.0 mg/kg/injection, schedule: Q01DX001 (ip), vehicle: saline with Tween-80 92 % of control

CC1Nc2ccccc2NC1C (stereo not drawn)
inactive: dose: 6.25 mg/kg/injection, schedule: Q01DX009 (ip), vehicle: saline + Tween-80 + alcohol 98 % of control | dose: 12.5 mg/kg/injection, schedule: Q01DX009 (ip), vehicle: saline + Tween-80 + alcohol 96 % of control | dose: 25.0 mg/kg/injection, schedule: Q01DX009 (ip), vehicle: saline + Tween-80 + alcohol 99 % of control and 95 % of control | [13] 91 % of control | [14] 100 % of control

O=C1CCCCC1C(=O)C(F)(F)F (stereo not drawn)
inactive: [13] 116 % of control | [14] 106 % of control

Cc1ccc(CCN(S(=O)(=O)c2ccc(C)cc2)S(=O)(=O)c2ccc(C)cc2)cc1
inactive: [8] 92 % of control | [9] 96 % of control | dose: 200.0 mg/kg/injection, schedule: Q01DX009 (ip), vehicle: Klucel (hydroxypropylcellulose) (HPC) 86 % of control

CN(C)c1ccc(C2(c3ccccc3)c3ccccc3C(=O)N2N)cc1 (stereo not drawn)
inactive: [10] 89 % of control | [11] 89 % of control | [12] 90 % of control

O=[N+]([O-])c1ccc2c(c1)[S@@](=O)c1nc([N+](=O)[O-])cnc1N2
inactive: [1] 103 % of control | [2] 101 % of control
